Measured values reported in US6013795A, “Alpha-branched fluoroalkylcarbonyl fluorides and their derivatives” (3M Innovative Properties Company, priority 1996, dated 2000).
Entries after “also recorded” stand apart in the source; their conditions may differ.

How the values were obtained:
[1] = hydrolytic stability of esters stirred with concentrated aqueous ammonium hydroxide; assay type: physicochemical; conditions: 2 days or comparable conditions
Source text: The acrylate and methacrylate esters from Examples D1-D11 were fully recoverable with essentially no degradation after being stirred with concentrated aqueous ammonium hydroxide for a period of 2 days.

rats = assay: acute LD50, one-time feeding study of rats; assay type: in vivo, rat; conditions: for toxicity rating: acute
Description: Acute LD50 measurements for a one-time feeding study of rats were determined over a 21 day period for both the α-branched perfluorocarboxylate salt, C7 F15 CF(CF3)COO^- NH4^+, and its straight chain isomer, CF3 (CF2)8 COO^- NH4^+.

[2] = Chem. Res. Toxicol. 1996, 9, 689-95; cited from earlier work
[3] = surface tension of aqueous surfactant solutions and critical micelle concentration (K-12 Processor Tensiometer); assay type: physicochemical; conditions: carboxylate salts, deionized water; Table 5
Source text: Critical Micelle Concentration (CMC): The critical micelle concentration is defined as the concentration at which further surface tension is no longer lowered with increasing levels of surfactant. […] Surface tension is then plotted vs. log concentration and the data points are connected. The resulting curve has a nearly horizontal flat portion at concentrations above the CMC and has a negative steep slope at concentrations below the CMC. The CMC is defined as the lowest surfactant concentration in the horizontal flat portion of the curve.
(§1) Then the critical micelle concentration (CMC) was determined for each surfactant.
as §1

rat = assay: exhaust gas monitoring of dosed rat in uptake desiccator chamber; assay type: in vivo; conditions: 500 mg/kg
Description: Additional biological testing of C7 F15 CF(CF3)COO^- NH4^+ in rats was conducted using the following test apparatus. An uptake desiccator jar chamber was designed with top and bottom portions, the top portion equipped with an inlet port, an outlet port, oxygen monitor and pressure gage. An oxygen gas tank supplied oxygen into the inlet port, and the oxygen level in the chamber was maintained at a normal ambient level as measured by the oxygen monitor and pressure gage. The outlet port was connected in series with a carbon dioxide scrubber and particulate filter, which in turn was connected to a loop containing a stainless steel bellows pump operating at about 2 L/min. Most of the gas in the loop was recycled into the inlet port, but about 100 mL/min was directed through a secondary loop to a gas chromatograph equipped with a 0.5 mL gas sampling loop.
A rat dosed at 500 mg/kg was placed in the bottom portion of the chamber, the top portion was attached, and the assembled chamber was placed in an ice-filled pan to allow for the condensation of water. The oxygen flow was started, and the exhaust gases were monitored for the presence of CF3 CF=CF(C6 F13) and C7 F15 CFHCF3, aqueous degradation products of C7 F15 CF(CF3)COOH, using known standards of this olefin and hydride in the gas chromatograph. […] After 24 minutes, one slight chromatographic peak was noted, corresponding to the monohydride. After 92 minutes, the peak became noticeably larger and a second peak formed, corresponding to the olefin.

[4] = emulsion polymerization of vinylidene fluoride and hexafluoropropylene with surfactant as emulsifier
Source text: The following procedure was used to evaluate C7 F15 CF(CF3)COO^- NH4^+ (from Ex. M1) as an emulsifier to copolymerize hexafluoropropylene (HFP) and vinylidene fluoride.
A 1 gallon, vertically agitated stainless steel reactor with pressure and temperature controls was evacuated and twice purged with nitrogen. Using an isolated vacuum, a solution comprised of 2 g of ammonium persulfate (initiator) and 6 g of dipotassium phosphate dissolved in 2800 g of deionized water was introduced into the reactor. The remaining vacuum on the reactor was vented with nitrogen, and the solution was degassed twice under agitation using alternate vacuum and nitrogen purges. […] The reactor was vented with nitrogen, the solution was agitated very briefly, and the reactor was evacuated of nitrogen and isolated. Then the reactor was vented with hexafluoropropylene monomer to a pressure of approximately 10 psig (1280 torr total pressure), and the temperature of the batch was raised to 72° C. with high agitation. Maintaining the temperature at 72° C., a monomer mixture of 60% (wt) of vinylidene fluoride and 40% (wt) hexafluoropropylene was fed from a tared gas cylinder into the head space of the reactor to maintain a reactor pressure of 130 psig (7480 total pressure). After feeding in about 1 kg of monomer blend (approximately 3.75 hours duration), the introduction of monomer was ceased, the reaction was allowed to cool to room temperature, and any residual unreacted monomer was vented.
The resulting latex polymer was drained from the reactor, and percent solids of the latex was determined to be 25% by weight as measured by drying 10 g of latex in a forced air oven for 16 hours at 105° C.
The reactor body was separated from the reactor head, and a visual inspection of the reactor was made to determine the amount of coagulated polymer in the reactor (the amount should be minimal in a good polymerization reaction). A qualitative rating was assessed, ranging from "none" to "little" to "some."
The latex stability was determined by half filling a 16 oz (450 mL) jar with latex and shaking several hours in the horizontal position, quantitatively rating the latex after shaking using a 3-point scale ranging from 0=very stable to 3=unstable.
Particle size in the latex was determined using 90° scattering on a Coulter sub-micron particle size analyzer.
Degree of foaming was rated using the following qualitative scale: 0=not foamy, 1=slightly foamy, 2=moderately foamy, and 3=very foamy.
In Example P2, the same experiment was run as in Example P1, except that the concentration of C7 F15 CF(CF3)COO^- NH4^+emulsifier was raised to 3500 ppm, the reaction time decreased from 3.75 to 3.5 hours, and the reaction temperature increased from 72° C. to 78° C.
In Comparative Examples P3-P6, the same experiment was run as in Example P1, except that C8 F17 SO2 N(C2 H5)CH2 COO^- K^+ (Fluorad™ FC-128 Fluorochemical Surfactant, available from 3M Company, St. Paul, Minn.), C7 F15 COO^- H4 N^+ (Fluorad™ FC-143 Fluorochemical Surfactant), and Surflon™ S111S Fluorochemical Surfactant (believed to be nominally telomer-based n-C9 F19 COO^- H4 N^+, commercially available from Asahi Glass Corp., Japan) were substituted for C7 F15 CF(CF3)COO^- H4 N^+ emulsifier.
In Comparative Example P7, the same experiment was run as in Example P1, except that no emulsifier was used.

[5] = thermal degradation of neat perfluorocarboxylate salts by thermogravimetric analysis; assay type: physicochemical; conditions: TGA 10° C./min, nitrogen
Source text: Thermal degradation measurements were made on a series of neat perfluorocarboxylate salts, including several α-branched open chain structures (Examples N2-N9), a primarily linear open chain structure (Example N10--Fluorad™ FC-143 Fluorochemical Surfactant, commercially available from 3M Company, St. Paul, Minn.), and a closed chain (i.e., cyclic) structure (Example N11- made by the electrochemical fluorination of benzoic acid and hydrolysis in the presence of KOH, as described in U.S. Pat. No. 2,567,011 (Diesslin et al.)).
The perfluorocarboxylate salts were tested using a Perkin-Elmer TGA 7 thermogravimetric analysis apparatus and a salt sample size of approximately 5 mg, a heating rate of 10° C./min, and a nitrogen gas flow rate of 40-45 mL/min. Using the TGA 7 software, the following temperatures were recorded: (1) the onset temperature of decomposition, (2) the temperature at which 50% of the sample weight was lost, and (3) the temperature at which 90% of the sample weight was lost.

[6] = degradation of aqueous salt solution stored at room temperature; assay type: physicochemical; conditions: same 1 year period
Description: The α-branched open chain ammonium salt compounds from Examples N3-N6 were dissolved in deionized water at a concentration of 5% by weight (0.5 g ammonium salt in 10 mL water) and were stored at room temperature.

Compound: C=CC(=O)OCCOC(=O)C(F)(F)C(F)(F)C(F)(F)C(F)(F)C(F)(F)C(F)(F)C(F)(F)F [C7 F15 COOCH2 CH2 OCOCH=CH2]
- hydrolytic stability [1]: readily hydrolyzed

Compound: O=C(O)C(F)(F)C(F)(F)C(F)(F)C(F)(F)C(F)(F)C(F)(F)C(F)(F)C(F)(F)C(F)(F)F [C9 F19 COO^- NH4^+, reference compound]
- toxicity relative to the α-branched isomer (rats; LD50 based): ca. 10 times
- toxicity rating (rats): moderately toxic
- wasting syndrome (rats; one-time feeding): Wasting syndrome was observed
- toxicity [2]: moderately toxic

Compound: O=C(O)C(F)(C(F)(F)F)C(F)(F)C(F)(F)C(F)(F)C(F)(F)C(F)(F)C(F)(F)C(F)(F)F (stereo not shown) [Example M14, C7 F15 CF(CF3)COO^- H4 N^+]
- CMC [3]: 2500 ppm
- Surf. Tens. at the CMC [3]: 16.5 dynes/cm
- toxicity rating (rats; listed as C7 F15 CF(CF3)COO^- NH4^+): relatively low toxicity; also recorded: only slightly toxic
- time after which rats began regaining weight (rats; one-time feeding): 3 days
- time of deaths from toxic doses (rats; one-time feeding): 2 to 3 days
- wasting syndrome (rats; one-time feeding): No wasting syndrome was noted
- post-exposure observation of toxicity (rat): no evidence of toxicity (death) or evidence of wasting syndrome
- time to second peak (olefin) in exhaust gas; monohydride peak noticeably larger (rat): 92 min
- time to slight peak of monohydride in exhaust gas (rat): 24 min
- olefin and monohydride peaks in exhaust gas (rat; after 217 minutes): both peaks became significantly larger
- olefin or hydride in exhaust gas (rat; initially): no olefin or hydride were detected
- Latex Stability ([4]; 350 ppm emulsifier): 2
- Latex Stability ([4]; 3500 ppm emulsifier): 0

Compound: O=C(O)C(F)(C(F)(F)F)C(F)(F)C(F)(F)C(F)(F)C(F)(F)C(F)(F)F (stereo not shown) [Example M28, C5 F11 CF(CF3)COO^- Na^+]
- Temperature for 50% loss ([5]; listed as N8): 250 °C

Compound: O=C(O)C(F)(F)C(F)(F)C(F)(F)C(F)(F)C(F)(F)C(F)(F)C(F)(F)F [FC-143, C7 F15 COO^- H4 N^+]
- CMC [3]: 8000 ppm
- Surf. Tens. at the CMC [3]: 21.5 dynes/cm
- degradation over 1 year (would show) [6]: no signs of degradation
- Latex Stability ([4]; 350 ppm emulsifier): 2

Compound: CCN(CC(=O)O)S(=O)(=O)C(F)(F)C(F)(F)C(F)(F)C(F)(F)C(F)(F)C(F)(F)C(F)(F)C(F)(F)F [Fluorad ™ FC-128, C8 F17 SO2 N(C2 H5)CH2 COO^- K^+]
- Latex Stability ([4]; 100 ppm emulsifier): 2
- Latex Stability ([4]; 350 ppm emulsifier): 0

Compound: O=C(O)C1(F)C(F)(F)C(F)(F)C(F)(F)C(F)(F)C1(F)F [U.S. Pat. No. 2,567,011]
- Onset temperature of decomposition [5]: 100 °C
- Temperature for 50% loss [5]: 110 °C
- Temperature for 90% loss [5]: 120 °C
